Experiment [1] concerns the target Glycogen synthase kinase-3 (Homo sapiens, UniProt P49840+P49841). In words: Inhibition of GSK3alpha/beta (unknown origin). The format is protein assay.
Experiment [2] concerns the target Cyclin-dependent kinase 5/CDK5 activator 1 (Homo sapiens, UniProt Q00535). In words: Inhibition of CDK5/p25 (unknown origin). It is filed as protein-complex assay.
Experiment [3] is described as follows: Inhibition of Marthasterias glacialis CDK1/cyclin B using histone H1 as substrate and [gamma32P]ATP after 10 min by scintillation counting.
Experiment [4] has as its system Staphylococcus aureus. As to the kind of experiment: Antibacterial activity against Staphylococcus aureus ATCC 6538 incubated for 48 hr followed by subculturing measured after 18 hr. It is filed as functional.
Experiment [5] deals with Pseudomonas aeruginosa. In words: Antibacterial activity against Pseudomonas aeruginosa ATCC 9027 incubated for 48 hr followed by subculturing measured after 18 hr. It is filed as functional.
Experiment [6] relates to Escherichia coli. In words: Antibacterial activity against Escherichia coli NCTC 10418 incubated for 48 hr followed by subculturing measured after 18 hr. It is filed as functional.
Experiment [7] relates to Staphylococcus aureus. In words: Antibacterial activity against Staphylococcus aureus ATCC 6538 after 48 hr by two fold serial dilution method. It is filed as functional. The note with it: ATCC 6538, 48 h.
Experiment [8] deals with Pseudomonas aeruginosa. In words: Antibacterial activity against Pseudomonas aeruginosa ATCC 9027 after 48 hr by two-fold serial dilution method. It is filed as functional. The note with it: ATCC 9027, 48 h.
In experiment [9] the test system is Escherichia coli. As to the kind of experiment: Antibacterial activity against Escherichia coli NCTC 10418 after 48 hr by two-fold serial dilution method. It is filed as functional. Particulars: NCTC 10418, 48 h.
Experiment [10] has as its system Staphylococcus aureus. In words: Antibacterial activity against Staphylococcus aureus ATCC 6538 at 1 mg/ml after 24 hr by agar cup diffusion method. It is filed as functional. The note with it: ATCC 6538, 24 h, read-out: DIZ.
The subject of experiment [11] is Pseudomonas aeruginosa. In words: Antibacterial activity against Pseudomonas aeruginosa ATCC 9027 at 1 mg/ml after 24 hr by agar cup diffusion method. The format is functional. Particulars: ATCC 9027, 24 h, read-out: DIZ.
Experiment [12] has as its system Escherichia coli. As to the kind of experiment: Antibacterial activity against Escherichia coli NCTC 10418 at 1 mg/ml after 24 hr by agar cup diffusion method. The format is functional. The note with it: NCTC 10418, 24 h, read-out: DIZ.
In experiment [13] the test system is Candida albicans. As to the kind of experiment: Antifungal activity against Candida albicans ATCC 10231 at 1 mg/ml after 24 hr by agar cup diffusion method. The format is functional. Particulars: ATCC 10231, 24 h, read-out: DIZ.
The test system of experiment [14] is Candida albicans. As to the kind of experiment: Antifungal activity against Candida albicans ATCC 10231 incubated for 48 hr followed by subculturing measured after 18 hr. It is filed as functional.
Experiment [15] concerns Candida albicans. In words: Antifungal activity against Candida albicans ATCC 10231 after 48 hr by two-fold serial dilution method. The format is functional. Particulars: ATCC 10231, 48 h.

Here are results for eleven compounds from ChEMBL document CHEMBL3044604, “Synthesis of some substituted furan-2(5H)-ones and derived quinoxalinones as potential anti-microbial and anti-cancer agents” (Med Chem Res, 2011).

pIC50: −log10 of the molar value. Values after ≈ are worked out from the molar mass of the structure shown.

The term IC50 denotes the concentration that gives 50% inhibition. What is called pIC50 is the negative decadic logarithm of the IC50, by convention in mol/L. Low readings indicate a large IC50, high ones a small IC50. By MBC is commonly meant the lowest tested concentration that kills the bacteria rather than only halting them. A higher MBC goes with weaker bactericidal potency. By MIC is commonly meant the smallest concentration in the dilution series that meets the test's criterion for growth inhibition. A word on the MFC: it is the lowest tested concentration that kills the fungus rather than only halting it. Low readings indicate more potent killing, high ones less potent killing.

Cyclin-dependent kinase 5/CDK5 activator 1, sequence (Q00535 whole entry): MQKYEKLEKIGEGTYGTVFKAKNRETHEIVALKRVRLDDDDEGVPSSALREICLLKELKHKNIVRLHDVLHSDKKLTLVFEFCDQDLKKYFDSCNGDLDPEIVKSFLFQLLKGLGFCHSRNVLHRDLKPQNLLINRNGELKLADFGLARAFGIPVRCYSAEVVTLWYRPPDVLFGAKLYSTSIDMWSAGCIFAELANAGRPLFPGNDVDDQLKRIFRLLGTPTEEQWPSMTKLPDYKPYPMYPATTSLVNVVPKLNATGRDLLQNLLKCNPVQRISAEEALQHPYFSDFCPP
Cyclin-dependent kinase 5/CDK5 activator 1, sequence (Q15078 whole entry, further chain): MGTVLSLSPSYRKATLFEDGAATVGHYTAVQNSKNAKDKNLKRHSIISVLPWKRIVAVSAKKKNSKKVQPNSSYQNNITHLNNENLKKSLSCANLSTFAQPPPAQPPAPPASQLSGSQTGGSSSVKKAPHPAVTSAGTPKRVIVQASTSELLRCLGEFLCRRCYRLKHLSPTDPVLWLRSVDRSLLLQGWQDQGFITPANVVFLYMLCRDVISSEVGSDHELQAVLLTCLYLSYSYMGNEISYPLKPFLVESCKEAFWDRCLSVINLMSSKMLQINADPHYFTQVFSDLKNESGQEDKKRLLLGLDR

`O=C(O)/C(Br)=C/c1ccc(Cl)cc1` gave an IC50 in experiment [1] of over 10 µM. The negative-log IC50 (pIC50) in [2] and in [3] was under 5.00 throughout. The MBC against Staphylococcus aureus [4] came out at 500 µg/mL (≈ 1910 µM); with Pseudomonas aeruginosa [5] it was 62.5 µg/mL (≈ 239 µM); against Escherichia coli [6], 500 µg/mL (≈ 1910 µM). The MIC against Staphylococcus aureus [7] stood at 125 µg/mL (≈ 478 µM); against Pseudomonas aeruginosa [8], 31.2 µg/mL (≈ 120 µM); in the experiment on Escherichia coli [9], 125 µg/mL (≈ 478 µM). The zone of inhibition at 1000 µg/mL in the experiment on Staphylococcus aureus [10] turned out to be 30 mm; in the experiment on Pseudomonas aeruginosa [11], 18 mm; in the experiment on Escherichia coli [12] it was 18 mm; in the experiment with Candida albicans [13], 15 mm.

In [1], `Cc1nn(-c2ccccc2)c(C)c1/C=C(\Br)C(=O)O` showed an IC50 of over 10 µM. In addition, the pIC50 in experiment [2] and in [3] was under 5.00 each time. Besides, the minimum bactericidal concentration (MBC) in the experiment with Pseudomonas aeruginosa [5] came out at 62.5 µg/mL (≈ 195 µM); in the experiment with Escherichia coli [6] it was 125 µg/mL (≈ 389 µM). Besides, the minimum inhibitory concentration (MIC) with Pseudomonas aeruginosa [8] and against Escherichia coli [9] was 31.2 µg/mL (≈ 97.3 µM) each time. Besides, the results for the zone of inhibition at 1000 µg/mL in the experiment with Pseudomonas aeruginosa [11] and in the experiment with Escherichia coli [12] were 20 mm and 19 mm, respectively.

`O=C1OC(c2ccccc2)C(Br)=C1O` (stereo not given) yielded a half-maximal inhibitory concentration (IC50) in [1] of over 10 µM. The negative logarithm of the IC50 (pIC50) in [2] and in [3] was under 5.00 throughout. In addition, the minimum bactericidal concentration (MBC) against Staphylococcus aureus [4] is over 500 µg/mL; with Escherichia coli [6], 250 µg/mL (≈ 980 µM). Also, the MFC against Candida albicans [14] is 62.5 µg/mL (≈ 245 µM). In addition, the minimum inhibitory concentration (MIC) in the experiment on Staphylococcus aureus [7] was 62.5 µg/mL (≈ 245 µM); against Escherichia coli [9] it was 62.5 µg/mL (≈ 245 µM); in the experiment with Candida albicans [15], 31.2 µg/mL (≈ 123 µM). In addition, the zone of inhibition at 1000 µg/mL came out at 23 mm with Staphylococcus aureus [10], 13.5 mm in the experiment on Pseudomonas aeruginosa [11], 21 mm in the experiment on Escherichia coli [12] and 20.5 mm with Candida albicans [13].

For the compound `O=C(O)C(=O)/C=C/c1cn(-c2ccccc2)nc1-c1ccccc1`, the 50% inhibitory concentration (IC50) in experiment [1] was over 10 µM. The pIC50 in [2] and in experiment [3] was under 5.00 in each case. Moreover, in the experiment on Escherichia coli [6], the MBC amounted to 125 µg/mL (≈ 393 µM). In the experiment with Candida albicans [14], the MFC was 125 µg/mL (≈ 393 µM). Besides, the minimal inhibitory concentration (MIC) in the experiment on Escherichia coli [9] and against Candida albicans [15] was 31.2 µg/mL (≈ 98.2 µM) each time. For the same compound, the zone of inhibition at 1000 µg/mL with Pseudomonas aeruginosa [11] came to 12 mm; with Escherichia coli [12], 19 mm; in the experiment on Candida albicans [13], 21 mm.

As for `COc1ccc(-c2nn(-c3ccccc3)cc2/C=C/C(=O)C(=O)O)cc1`, the IC50 in experiment [1] was over 10 µM. The negative-log IC50 (pIC50) in experiment [2] and in experiment [3] was under 5.00 each time. The same compound yielded an MBC against Staphylococcus aureus [4] of over 500 µg/mL. The same compound registered a minimum fungicidal concentration (MFC) in the experiment with Candida albicans [14] of 125 µg/mL (≈ 359 µM). The MIC against Staphylococcus aureus [7] was found to be 125 µg/mL (≈ 359 µM); with Candida albicans [15], 31.2 µg/mL (≈ 89.7 µM). The zone of inhibition at 1000 µg/mL in the experiment with Staphylococcus aureus [10] was 19 mm; in the experiment on Pseudomonas aeruginosa [11] it was 13 mm; in the experiment with Escherichia coli [12], 17 mm; in the experiment with Candida albicans [13] it was 20 mm.

Compound `O=C(O)/C(Br)=C/c1cn(-c2ccccc2)nc1-c1ccc(Br)cc1` returned a half-inhibitory concentration (IC50) in [1] of over 10 µM. In addition, the pIC50 in [2] and in [3] was under 5.00 throughout. Moreover, the MBC with Staphylococcus aureus [4] is 62.5 µg/mL (≈ 139 µM); in the experiment with Pseudomonas aeruginosa [5], 500 µg/mL (≈ 1120 µM). Moreover, the minimum inhibitory concentration (MIC) was found to be 31.2 µg/mL (≈ 69.7 µM) with Staphylococcus aureus [7] and 250 µg/mL (≈ 558 µM) with Pseudomonas aeruginosa [8]. Besides, the zone of inhibition at 1000 µg/mL was 33 mm in the experiment on Staphylococcus aureus [10], 18 mm in the experiment with Pseudomonas aeruginosa [11], 17 mm in the experiment with Escherichia coli [12] and 15 mm in the experiment with Candida albicans [13].

`O=C(COC1=C(Br)C(c2ccccc2)OC1=O)NCc1ccccc1` (stereo not given) registered a concentration for half-maximal inhibition (IC50) in [1] of over 10 µM. Also, the negative-log IC50 (pIC50) in experiment [2] and in [3] was under 5.00 in each case. The MBC against Staphylococcus aureus [4] stood at 15.6 µg/mL (≈ 38.8 µM); against Pseudomonas aeruginosa [5], 31.2 µg/mL (≈ 77.7 µM); against Escherichia coli [6], 15.6 µg/mL (≈ 38.8 µM). In addition, the minimum inhibitory concentration (MIC) against Staphylococcus aureus [7], in the experiment with Pseudomonas aeruginosa [8] and against Escherichia coli [9] was 7.81 µg/mL (≈ 19.4 µM) each time. Further, the zone of inhibition at 1000 µg/mL was 23 mm in the experiment with Staphylococcus aureus [10], 25 mm with Pseudomonas aeruginosa [11], 24 mm with Escherichia coli [12] and 17 mm in the experiment on Candida albicans [13].

In turn, `O=C1OC(c2ccc(Cl)cc2)C(Br)=C1O` (stereo not given) returned an IC50 in [1] of over 10 µM. In addition, the negative-log IC50 (pIC50) in experiment [2] and in experiment [3] was under 5.00 throughout. The MBC in the experiment on Staphylococcus aureus [4] was found to be 150 µg/mL (≈ 518 µM); against Escherichia coli [6], 125 µg/mL (≈ 432 µM). Moreover, the minimum fungicidal concentration (MFC) in the experiment with Candida albicans [14] stood at 62.5 µg/mL (≈ 216 µM). The MIC in the experiment on Staphylococcus aureus [7] came to 62.5 µg/mL (≈ 216 µM); in the experiment on Escherichia coli [9] it was 31.2 µg/mL (≈ 108 µM); against Candida albicans [15], 31.2 µg/mL (≈ 108 µM). Moreover, the zone of inhibition at 1000 µg/mL in the experiment on Staphylococcus aureus [10] was found to be 20 mm; in the experiment with Escherichia coli [12], 20 mm; in the experiment on Candida albicans [13], 21 mm.

The compound `O=C1OC(c2cn(-c3ccccc3)nc2-c2ccccc2)C(Br)=C1O` (stereo not given) returned a half-maximal inhibitory concentration (IC50) in [1] of over 10 µM. For the same compound, the negative logarithm of the IC50 (pIC50) in experiment [2] and in experiment [3] was under 5.00 throughout. For the same compound, the MBC in the experiment on Pseudomonas aeruginosa [5] was 125 µg/mL (≈ 315 µM); in the experiment with Escherichia coli [6], 250 µg/mL (≈ 629 µM). In addition, the minimum inhibitory concentration (MIC) against Pseudomonas aeruginosa [8] and against Escherichia coli [9] was 62.5 µg/mL (≈ 157 µM) each time. Moreover, the zone of inhibition at 1000 µg/mL in the experiment with Pseudomonas aeruginosa [11] is 19 mm; in the experiment with Escherichia coli [12], 19 mm; with Candida albicans [13] it was 16.5 mm.

For the compound `O=C(O)C(=O)/C=C/c1cn(-c2ccccc2)nc1-c1ccc(Br)cc1`, the 50% inhibitory concentration (IC50) in experiment [1] was over 10 µM. The pIC50 in experiment [2] and in experiment [3] was under 5.00 in each case. Also, in the experiment with Escherichia coli [6], the minimal bactericidal concentration (MBC) is over 500 µg/mL. Further, the MFC in the experiment on Candida albicans [14] was found to be 31.2 µg/mL (≈ 78.7 µM). In addition, the MIC in the experiment with Escherichia coli [9] was determined as 62.5 µg/mL (≈ 157 µM); against Candida albicans [15], 7.81 µg/mL (≈ 19.7 µM). Moreover, the figures for the zone of inhibition at 1000 µg/mL in the experiment with Pseudomonas aeruginosa [11], with Escherichia coli [12] and with Candida albicans [13] were 13 mm, 19 mm and 21 mm, respectively.

`CC1(C)S[C@@H]2[C@H](NC(=O)[C@H](N)c3ccccc3)C(=O)N2[C@H]1C(=O)O` [AMPICILLIN]: the MBC was found to be 15.6 µg/mL (≈ 44.7 µM) in the experiment on Staphylococcus aureus [4], 250 µg/mL (≈ 715 µM) in the experiment on Pseudomonas aeruginosa [5] and 31.2 µg/mL (≈ 89.4 µM) with Escherichia coli [6]. Also, the minimum inhibitory concentration (MIC) against Staphylococcus aureus [7] worked out at 3.9 µg/mL (≈ 11.2 µM); against Pseudomonas aeruginosa [8], 125 µg/mL (≈ 358 µM); in the experiment with Escherichia coli [9], 7.81 µg/mL (≈ 22.4 µM). The zone of inhibition at 1000 µg/mL in the experiment with Staphylococcus aureus [10] amounted to 40 mm; with Escherichia coli [12] it was 26 mm.
